Assay results from patent publication US20150272939A1, “Identification of Small Molecule Inhibitors of Jumonji AT-Rich Interactive Domain 1A (JARID1A) and 1B (JARID1B) Histone Demethylase” (Yale University, priority 2012, published 2015).

Experiments:
JARID1B = biological target: T1, JARID1B (Homo sapiens, UniProt Q9UGL1); test: FLAG-JARID1B histone demethylase assay with AlphaScreen detection (HTS and dose response); type: biochemical; conditions: for Assay − Artifact Signal (percent): assay signal minus artifact signal; for inhibition at 20 µM: high-throughput screen, compound 20 μM, standard demethylase conditions (10 μM α-KG, 50 μM Fe (II)), read-out: Inhibitory effect (percent); for Assay Signal (percent) / Validation result of HTS active: effect of the compound in the JARID1B AlphaScreen demethylase assay: validation of HTS actives; for Assay Signal (percent): effect of compound in JARID1B AlphaScreen assay; for Validation result of HTS active: effect of the compound in the JARID1B AlphaScreen demethylase assay: total signal before subtraction of artifact signal;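 on Assay Signal (percent): compound tested at 20 µM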;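 on Assay − Artifact Signal (percent): compound tested at 20 µM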;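 on all read-outs here: FLAG-tagged JARID1B at 4 nM acting on a biotinylated H3K4me3 peptide, demethylation read by AlphaScreen luminescence, with hits checked against bio-H3K4me2 without enzyme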
T1 construct: The FLAG tagged full length JARID1B enzyme was expressed in Sf21 insect cells using FLAG-JARID1B baculoviruses; FLAG (N); made in house; host or cells: Sf21 insect cells (baculovirus)

[1] = AlphaScreen counterscreen against bio-H3K4me2 peptide in the absence of enzyme (artifact signal); conditions: for Artifact Signal (percent): effect of the compound when incubated with bio-H3K4me2 peptide (counterscreen, no enzyme); for Artifact signal: effect of the compound when it is incubated with bio-H3K4me2 peptide: counterscreen, no enzyme;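 on all read-outs here: counterscreen run without enzyme against bio-H3K4me2 peptide to remove false positive hits from the JARID1 demethylase AlphaScreen screen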

T1 sequence (Q9UGL1 whole entry): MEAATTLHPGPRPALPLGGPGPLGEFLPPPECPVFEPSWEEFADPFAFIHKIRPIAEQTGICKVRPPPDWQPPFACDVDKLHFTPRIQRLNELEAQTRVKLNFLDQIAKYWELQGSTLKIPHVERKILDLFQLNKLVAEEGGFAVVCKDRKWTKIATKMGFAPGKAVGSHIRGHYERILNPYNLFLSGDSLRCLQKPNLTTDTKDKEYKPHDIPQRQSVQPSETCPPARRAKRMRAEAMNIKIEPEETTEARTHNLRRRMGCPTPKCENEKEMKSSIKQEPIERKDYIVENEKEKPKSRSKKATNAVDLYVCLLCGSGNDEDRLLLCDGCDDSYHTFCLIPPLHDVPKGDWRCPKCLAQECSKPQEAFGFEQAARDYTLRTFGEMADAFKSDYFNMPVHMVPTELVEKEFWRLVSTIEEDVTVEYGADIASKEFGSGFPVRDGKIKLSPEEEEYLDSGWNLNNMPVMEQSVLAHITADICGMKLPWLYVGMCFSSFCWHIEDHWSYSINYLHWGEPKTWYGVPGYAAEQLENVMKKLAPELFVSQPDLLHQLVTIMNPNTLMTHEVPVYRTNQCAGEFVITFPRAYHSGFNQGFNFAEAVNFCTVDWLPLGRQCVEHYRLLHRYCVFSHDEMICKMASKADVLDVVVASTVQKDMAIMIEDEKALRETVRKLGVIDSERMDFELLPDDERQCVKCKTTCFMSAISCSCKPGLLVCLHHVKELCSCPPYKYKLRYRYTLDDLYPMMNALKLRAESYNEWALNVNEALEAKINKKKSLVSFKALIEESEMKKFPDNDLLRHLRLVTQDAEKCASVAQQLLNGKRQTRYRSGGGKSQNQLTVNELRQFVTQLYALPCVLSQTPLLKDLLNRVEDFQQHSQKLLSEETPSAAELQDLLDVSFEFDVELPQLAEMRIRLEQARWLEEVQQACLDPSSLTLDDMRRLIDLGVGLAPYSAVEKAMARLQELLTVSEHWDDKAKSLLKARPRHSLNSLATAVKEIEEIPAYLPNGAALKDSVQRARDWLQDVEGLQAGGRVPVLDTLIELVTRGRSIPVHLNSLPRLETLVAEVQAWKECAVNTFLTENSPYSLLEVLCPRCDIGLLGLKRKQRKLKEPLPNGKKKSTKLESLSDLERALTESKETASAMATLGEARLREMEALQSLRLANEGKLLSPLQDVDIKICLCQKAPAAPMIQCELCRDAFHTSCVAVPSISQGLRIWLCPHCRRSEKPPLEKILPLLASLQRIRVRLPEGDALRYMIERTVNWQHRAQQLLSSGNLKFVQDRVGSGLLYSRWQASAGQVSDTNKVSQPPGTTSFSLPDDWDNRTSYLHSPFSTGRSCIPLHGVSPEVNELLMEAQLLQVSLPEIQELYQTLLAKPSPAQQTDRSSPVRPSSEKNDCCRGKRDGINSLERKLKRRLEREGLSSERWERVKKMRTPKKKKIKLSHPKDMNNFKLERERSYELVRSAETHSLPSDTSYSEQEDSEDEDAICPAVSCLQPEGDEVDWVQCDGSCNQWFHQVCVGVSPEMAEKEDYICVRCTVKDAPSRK

Row | SMILES | Assay − Artifact Signal (percent) (JARID1B) [%] | inhibition at 20 µM (JARID1B) [%] | Assay Signal (percent) (JARID1B) [%] | Artifact Signal (percent) [1] [%] | Validation result of HTS active: effect of the compound in the JARID1B AlphaScreen demethylase assay (JARID1B) | Artifact signal: effect of the compound when it is incubated with bio-H3K4me2 peptide [1]
1 | CC(=O)Nc1ccccc1NC(=O)c1ccc2c(c1)OCO2 [YU149951] | 8.46 | 84.7 | 6.61 | −1.85 | – | –
2 | CC(NC(=S)Nc1ccc2c(c1)OCO2)c1ccncc1 (centres unmarked) [YU150371] | 8.09 | 31.8 | 6.16 | −1.93 | – | –
3 | Cc1ccc(NC(=O)C2OCCc3ccccc32)cc1Cl (centres unmarked) [YU150403] | – | 97.5 | – | – | −3.10 | −6.36
4 | CC1(C)C(=O)C2(CCCCC2)C(=O)OC1c1ccc(O)cc1 (centres unmarked) [YU150447] | – | 34.3 | – | – | 4.56 | 0.80
5 | O=c1c2c(-c3ccc(Cl)cc3)csc2nc2n1CCC2 [YU150472] | – | 32.1 | – | – | 4.75 | −2.52
6 | c1ccc(CCc2nn3c(-c4ccncc4)nnc3s2)cc1 [YU150981] | 48.70 | 71.2 | 52.35 | 3.65 | – | –
7 | CCCc1ccc(OC(=O)c2cc3ccccc3oc2=O)cc1 [YU151027] | – | 37 | – | – | 2.93 | −4.49
8 | CCOC(=O)C(CCOc1cccc(CC)c1)C(=O)OCC [YU151071] | 9.86 | 96.7 | 6.13 | −3.73 | – | –
9 | COc1ccc(C2CC(c3cccnc3)Nc3nnnn32)cc1 (centres unmarked) [YU151128] | 8.40 | 59.7 | 6.20 | −2.19 | – | –
10 | O=C(O)CSc1nc2cc(F)c(N3CCOCC3)cc2[nH]1 [YU151409] | – | 45.1 | – | – | 4.03 | −0.23
11 | COc1cc(C(=S)N2CC(C)OC(C)C2)cc(OC)c1O (centres unmarked) [YU151441] | 16.81 | 30.8 | 12.98 | −3.82 | – | –
12 | Oc1cccc(C(=S)N2CCN(Cc3ccccc3)CC2)c1 [YU151559] | 18.39 | 36.9 | 27.61 | 9.22 | – | –
13 | O=C(Cn1c(=O)oc2ccccc21)Nc1cccc([N+](=O)[O-])c1 [YU151591] | 14.61 | 35 | 16.26 | 1.65 | – | –
14 | COC(=O)Nc1ccc(S(=O)(=O)N2CCCCCC2)cc1 [YU151614] | – | 85.5 | – | – | −1.67 | −4.92
15 | CC(=O)Oc1c([N+](=O)[O-])cc2c(c1Br)CCCC2 [YU151714] | 12.20 | 32.3 | 13.44 | 1.24 | – | –
16 | O=C(O)c1cc2cc(Cc3ccccc3Cl)ccc2oc1=O [YU151859] | – | 84.4 | – | – | 9.33 | 5.15
17 | Cc1ccc(NC(=O)CC2SC3=NCCCN3C2=O)c(C)c1 (centres unmarked) [YU152183] | – | 39.4 | – | – | 6.95 | 1.46
18 | Cc1ccc(C)c(NS(=O)(=O)c2ccc3[nH]c(=O)oc3c2)c1 [YU152226] | 11.28 | 60.1 | 5.25 | −6.03 | – | –
19 | Cc1nn2c(=O)[nH]c3sc4c(c3c2nc1=O)CC(C)(C)OC4 [YU152236] | 43.69 | 51.6 | 49.40 | 5.71 | – | –
20 | Nc1c([N+](=O)[O-])cc(F)c(N2CCOCC2)c1Br [YU152451] | – | 74.6 | – | – | 2.82 | −3.09
